Measured values as given in PMC6150365, “Simultaneous Determination of Seven Components in Rat Plasma by the UPLC-MS/MS Method and Application of Pharmacokinetic Studies to SimiaoYong’an Decoction” (Molecules : A Journal of Synthetic Chemistry and Natural …, 2017).

Assay: Pharmacokinetic study in rats after oral administration of SYD extract and its single and combined TCM extracts (UPLC-MS/MS of plasma)
Settings: male, Sprague-Dawley, rat, plasma, po, n = 6; for AUC(0-t) / AUC(0-inf) / Cmax / MRT last / MRT inf / Tmax: rat plasma; for MRT last: MRT(0–t); for MRT inf: MRT(0–∞); for half-life: t1/2, rat plasma
[1] = 1.29 g/kg, oral AS extract 1.29 g/kg
[2] = 2.14 g·kg^−1 (extract), oral LJ + GU extract
[3] = 2.15 g/kg, oral LJ extract 2.15 g/kg
[4] = 2.43 g/kg, oral AS + GU extract 2.43 g/kg
[5] = 3.29 g·kg^−1 (extract), oral LJ + AS extract
[6] = 3.29 g·kg^−1 extract, oral LJ + AS extract
[7] = 4.5 g·kg^−1 (extract), oral LJ + SN extract
[8] = 4.5 g·kg^−1 extract, oral LJ + SN extract
[9] = 4.73 g/kg, oral LJ + SN + GU extract 4.73 g/kg
[10] = 5.43 g/kg, oral LJ + SN + AS extract 5.43 g/kg
[11] = 8.25 g/kg, oral SYD extract 8.25 g/kg

Method: Pieces of LJ, SN, AS and GU were weighed according to the proportion of 3:3:2:1 with appropriate amounts. The mixed pieces were crushed and decocted two times (60 min each time) with water (1:10 w/v) after being soaked for 60 min. The decoctions were then combined and condensed to the concentration of 0.5 g/mL, after which 95% ethanol was slowly added to the concentrate until a final ethanol concentration of 70% was reached. The SYD solution was set at room temperature overnight and then was filtered. The solvent was recovered, and the residue was dried under reduced pressure. A certain amount of the water extract of SYD was weighed and then dissolved with purified water for intragastric (oral) administration solution. The single herbs and different combination groups such as LJ, SN, AS, GU, LJ + SN, LJ + AS, LJ + GU, SN + AS, SN + GU, AS + GU, LJ + SN + AS, LJ + SN + GU, LJ + AS + GU and SN + AS + GU were prepared according to the procedure of SYD.
Male Sprague-Dawley (SD) rats (body weight 250 ± 10 g) were supplied by the SPF (Beijing) Biotechnology Co., Ltd. (Certificate No.: SCXK 2016-0002, Beijing, China). The animals were maintained in controlled conditions (temperature 20–25 °C, relative humidity 55–60% and 12-h light/12-h dark cycle) with free access to standard laboratory food and water for seven days of acclimation and then fasted for 12 h before each experiment but allowed to drink freely during this time.
Ninety male SD rats were randomly separated into 15 groups and administered a dosage of extract via gastric gavage once per day; detailed information about the oral daily dose of SYD extract and the corresponding single and combined TCMs (LJ, SN, AS, GU, LJ + SN, LJ + AS, LJ + GU, SN + AS, SN + GU, AS + GU, LJ + SN + AS, LJ + SN + GU, LJ + AS + GU, SN + AS + GU and SYD) is listed in Table 4.
Each plasma sample (200 μL) with 50 μL IS solution added was spiked into 100 μL 1% formic acid distilled water solution and then vortexed for 1 min. Protein was precipitated by adding 600 μL of methanol to the mixture. After being vortexed and sonicated, the samples were centrifuged at 25,000 r/min, 4 °C for 10 min. The supernatant of each sample was transferred to a new 2-mL centrifuge tube and evaporated to dryness by N2 at 40 °C. Finally, the residue was dissolved in 100 μL methanol–water (1:1, v/v), followed by centrifugation at 30,000 r/min, 4 °C for 10 min, and 10-μL supernatant aliquots were injected into the UPLC-MS/MS system for analysis.
The SYD was decomposed into 15 groups of compatibility combinations (LJ, SN, AS, GU, LJ + SN, LJ + AS, LJ + GU, SN + AS, SN + GU, AS + GU, LJ + SN + AS, LJ + SN + GU, LJ + AS + GU, SN + AS + GU and SYD). The 15 combinations were weighed according to the proportion of 3:3:2:1 with appropriate amounts and prepared by the method described in “Section 3.2”. Six male SD rats (body weight 250 ± 10 g) of each compatibility group were used in the pharmacokinetic study. After 12-h fast, rats of the different groups were orally administered the respective extract dissolved in saline (Table 4). Venous blood (0.45 mL) was obtained from the orbit vein and collected in heparin-pretreated polypropylene centrifuge tubes at 0.083 h, 0.17 h, 0.25 h, 0.50 h, 0.75 h, 1.0 h, 1.5 h, 2.0 h, 3.0 h, 4.0 h, 6.0 h, 8.0, 12 h and 24 h post-dose. The plasma was separated by centrifugation at 8000 r/min for 10 min and then stored at −20 °C until analysis. The amount of each analyte in the plasma was estimated by UPLC-MS/MS analysis as described in Section 3.5.
Non-compartmental methods using Phoenix WinNonlin 7.0 software provided by the Beijing University of Chinese Medicine were used to analyze plasma concentration versus time profiles and to estimate the following pharmacokinetic parameters: terminal elimination half-lives (t1/2), area under the plasma concentration versus time curve from zero to last sampling time (AUC), and the mean residence time (MRT).

O=C(/C=C/c1ccc(O)c(O)c1)O[C@@H]1C[C@](O)(C(=O)O)C[C@@H](O)[C@H]1O [Chlorogenic acid, chlorogenic acid]
AUC(0-t) [1]: 1360 ± 120 ng·h/mL
AUC(0-inf) [1]: 2130 ± 670 ng·h/mL
Cmax [1]: 390 ± 110 ng/mL
MRT last [1]: 1.56 ± 0.67 h
MRT inf [1]: 4.28 ± 2.23 h
Tmax [1]: 0.89 ± 0.33 h
half-life [1]: 3.54 ± 0.98 h
AUC(0-inf) [2]: 2930 ± 1000 ng·h/mL
Cmax [2]: 1070 ± 190 ng/mL
MRT last [2]: 3.85 ± 0.88 h
MRT inf [2]: 65 ± 64.6 h
Tmax [2]: 1.18 ± 0.78 h
half-life [2]: 8.15 ± 2.49 h
AUC(0-t) (2.14 g·kg^−1 extract, oral LJ + GU extract): 1780 ± 290 ng·h/mL
AUC(0-t) [3]: 3940 ± 2120 ng·h/mL
AUC(0-inf) [3]: 5040 ± 2980 ng·h/mL
Cmax [3]: 2410 ± 830 ng/mL
MRT last [3]: 3.12 ± 0.75 h
MRT inf [3]: 24.7 ± 8.81 h
Tmax [3]: 1.11 ± 0.74 h
half-life [3]: 9.39 ± 2.87 h
AUC(0-t) [4]: 1150 ± 340 ng·h/mL
AUC(0-inf) [4]: 1980 ± 450 ng·h/mL
Cmax [4]: 290 ± 210 ng/mL
MRT last [4]: 1.78 ± 0.39 h
MRT inf [4]: 3.36 ± 2 h
Tmax [4]: 0.55 ± 0.48 h
half-life [4]: 2.78 ± 0.53 h
Cmax [5]: 1670 ± 480 ng/mL
MRT last [5]: 3.17 ± 0.75 h
MRT inf [5]: 37.6 ± 36.1 h
Tmax [5]: 1.36 ± 0.69 h
half-life [5]: 7.14 ± 1.59 h
AUC(0-t) [6]: 2820 ± 750 ng·h/mL
AUC(0-inf) [6]: 3770 ± 1220 ng·h/mL
MRT last [7]: 3.48 ± 0.86 h
MRT inf [7]: 46.8 ± 43.4 h
Tmax [7]: 1.36 ± 1.03 h
half-life [7]: 7.82 ± 2.6 h
AUC(0-t) [8]: 2800 ± 1160 ng·h/mL
AUC(0-inf) [8]: 4250 ± 2310 ng·h/mL
Cmax [8]: 1740 ± 750 ng/mL
AUC(0-t) [9]: 2190 ± 480 ng·h/mL
AUC(0-inf) [9]: 3410 ± 640 ng·h/mL
Cmax [9]: 1280 ± 510 ng/mL
MRT last [9]: 3.44 ± 0.29 h
MRT inf [9]: 69.3 ± 73.6 h
half-life [9]: 8.34 ± 1.07 h
AUC(0-t) [10]: 2550 ± 640 ng·h/mL
AUC(0-inf) [10]: 3690 ± 490 ng·h/mL
Cmax [10]: 1380 ± 370 ng/mL
MRT last [10]: 3.19 ± 0.32 h
MRT inf [10]: 59.5 ± 63.2 h
half-life [10]: 6.73 ± 1.7 h
AUC(0-t) [11]: 2540 ± 280 ng·h/mL
AUC(0-inf) [11]: 3650 ± 820 ng·h/mL
Cmax [11]: 1220 ± 80 ng/mL
MRT last [11]: 3.28 ± 0.5 h
MRT inf [11]: 52.6 ± 53.8 h
half-life [11]: 8.08 ± 1.67 h
half-life ([…], oral SN + AS + GU extract […]): 7.95 ± 2.46 h
